In article PMC3542538 (Journal of medicinal chemistry, 2012):
Entries after “also recorded” stand apart in the source; their conditions may differ. Structures can show the parent of a compound that is named as a salt.

test system: all human cancer cell lines successfully tested; experiment: cells; conditions: read-out: MGM (mean graph midpoint GI50)

GI50 [nM]	SMILES
170 ± 17	COc1ccc2c(c1)-c1c(c3ccc([N+](=O)[O-])cc3c(=O)n1CCCN)C2=O [Compound 51, 6-(3-Aminopropyl)-5,6-dihydro-8-methoxy-3-nitro-5,11-dioxo-11H-indeno[1,2-c]isoquinoline Hydrochloride]
160	NCCCn1c2c(c3ccc(N)cc3c1=O)C(=O)c1ccccc1-2 [Compound 62]
1860	COC(=O)CC(=O)Nc1ccc2c3c(n(CCCN)c(=O)c2c1)-c1ccccc1C3=O [Compound 23, Methyl 3-[(6-(3-Aminopropyl)-5,11-dioxo-6,11-dihydro-5H-indeno[1,2-c]isoquinolin-3-yl)amino]-3-oxopropanoate]
870 ± 14	NCCCn1c2c(c3ccc(NCC(=O)O)cc3c1=O)C(=O)c1ccccc1-2 [Compound 43, 2-((6-(3-Aminopropyl)-5,11-dioxo-6,11-dihydro-5H-indeno[1,2-c]isoquinolin-3-yl)amino)acetic Acid Hydrochloride]
1090	COC(=O)CCCC(=O)Nc1ccc2c3c(n(CCCN)c(=O)c2c1)-c1ccccc1C3=O [Compound 25, Methyl 5-[(6-(3-Aminopropyl)-5,11-dioxo-6,11-dihydro-5H-indeno[1,2-c]isoquinolin-3-yl)amino]-5-oxopentanoate]
250 ± 4	COc1ccc2c(c1)C(=O)c1c-2n(CCCN)c(=O)c2cc(I)ccc12 [Compound 84, 6-(3-Aminopropyl)-5,6-dihydro-9-methoxy-3-iodo-5,11-dioxo-11H-indeno[1,2-c]isoquinoline]
1860 ± 380	COC(=O)C(=O)Nc1ccc2c3c(n(CCCN)c(=O)c2c1)-c1ccccc1C3=O [Compound 22, Methyl 2-[(6-(3-Aminopropyl)-5,11-dioxo-6,11-dihydro-5H-indeno[1,2-c]isoquinolin-3-yl)amino]-2-oxoacetate]
300 ± 14	CN(C)CCCn1c2c(c3ccc(C#N)cc3c1=O)C(=O)c1ccccc1-2 [Compound 74]

The remaining lines, values behind:

SMILES	GI50 [nM]
O=C1c2ccccc2-c2c1c1ccc([N+](=O)[O-])cc1c(=O)n2CCCO [Compound 63]	890 ± 220
COc1ccc2c(c1)C(=O)c1c-2n(CCCN)c(=O)c2cc(N)ccc12 [Compound 89, 3-Amino-6-(3-aminopropyl)-5,6-dihydro-9-methoxy-5,11-dioxo-11H-indeno[1,2-c]isoquinoline Dihydrochloride]	40
COc1ccc2c(c1)-c1c(c3ccc([N+](=O)[O-])cc3c(=O)n1CCCn1ccnc1)C2=O [Compound 52, 6-(3-(1H-Imidazol-1-yl)propyl)-8-methoxy-3-nitro-5H-indeno[1,2-c]isoquinoline-5,11(6H)-dione]	20 ± 0.6
COc1ccc2c(c1)C(=O)c1c-2n(CCCN)c(=O)c2cc([N+](=O)[O-])ccc12 [Compound 54]	20 ± 0.8

test system: single-stranded DNA substrate; experiment: Surface plasmon resonance binding to single-stranded DNA substrate; conditions: SPR

SMILES	binding to the single-stranded DNA substrate
Cn1c2c(c3ccc(NC(=O)C(=O)O)cc3c1=O)C(=O)c1ccccc1-2 [Compound 14]	did not bind

target: T1, recombinant human Top1 (Homo sapiens, UniProt P11387); experiment: Topoisomerase I-mediated DNA cleavage reactions; format: biochemical; conditions: 100 μM
T1 sequence (P11387 1-765): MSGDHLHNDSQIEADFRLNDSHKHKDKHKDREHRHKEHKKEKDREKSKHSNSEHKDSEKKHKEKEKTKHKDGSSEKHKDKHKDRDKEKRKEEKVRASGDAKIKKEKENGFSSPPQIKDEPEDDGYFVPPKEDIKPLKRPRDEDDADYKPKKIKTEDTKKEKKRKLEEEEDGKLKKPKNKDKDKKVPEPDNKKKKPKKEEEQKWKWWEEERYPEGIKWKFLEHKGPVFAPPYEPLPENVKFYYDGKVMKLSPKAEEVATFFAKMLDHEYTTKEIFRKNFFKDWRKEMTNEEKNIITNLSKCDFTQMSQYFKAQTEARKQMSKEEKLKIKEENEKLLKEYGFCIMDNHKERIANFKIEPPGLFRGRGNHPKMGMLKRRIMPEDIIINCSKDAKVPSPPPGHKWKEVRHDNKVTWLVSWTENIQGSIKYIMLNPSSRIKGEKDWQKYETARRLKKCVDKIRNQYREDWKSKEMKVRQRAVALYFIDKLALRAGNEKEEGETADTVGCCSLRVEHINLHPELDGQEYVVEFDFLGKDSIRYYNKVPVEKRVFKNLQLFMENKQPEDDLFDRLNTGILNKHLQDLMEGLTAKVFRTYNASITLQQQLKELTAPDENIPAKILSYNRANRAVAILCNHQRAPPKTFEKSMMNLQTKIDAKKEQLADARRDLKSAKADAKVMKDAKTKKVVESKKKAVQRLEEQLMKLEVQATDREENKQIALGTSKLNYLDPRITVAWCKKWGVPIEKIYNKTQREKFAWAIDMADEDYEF

SMILES	suppression of Top1-mediated DNA cleavage at high drug concentration
COc1ccc2c(c1)-c1c(c3ccc([N+](=O)[O-])cc3c(=O)n1CCCn1ccnc1)C2=O [Compound 52, 6-(3-(1H-Imidazol-1-yl)propyl)-8-methoxy-3-nitro-5H-indeno[1,2-c]isoquinoline-5,11(6H)-dione]	slight suppression; also recorded: does not
COc1ccc2c(c1)C(=O)c1c-2n(CCCN(C)C)c(=O)c2cc(I)ccc12 [Compound 85, 3-Iodo-9-methoxy-6-(3-(Dimethylamino)propyl)-5H-indeno[1,2-c]isoquinoline-5,11(6H)-dione]	complete suppression; also recorded: suppress

target: recombinant Tdp1 (Homo sapiens, UniProt Q9NUW8); experiment: not given; format: biochemical; conditions: not given
Sequence (Q9NUW8 whole entry): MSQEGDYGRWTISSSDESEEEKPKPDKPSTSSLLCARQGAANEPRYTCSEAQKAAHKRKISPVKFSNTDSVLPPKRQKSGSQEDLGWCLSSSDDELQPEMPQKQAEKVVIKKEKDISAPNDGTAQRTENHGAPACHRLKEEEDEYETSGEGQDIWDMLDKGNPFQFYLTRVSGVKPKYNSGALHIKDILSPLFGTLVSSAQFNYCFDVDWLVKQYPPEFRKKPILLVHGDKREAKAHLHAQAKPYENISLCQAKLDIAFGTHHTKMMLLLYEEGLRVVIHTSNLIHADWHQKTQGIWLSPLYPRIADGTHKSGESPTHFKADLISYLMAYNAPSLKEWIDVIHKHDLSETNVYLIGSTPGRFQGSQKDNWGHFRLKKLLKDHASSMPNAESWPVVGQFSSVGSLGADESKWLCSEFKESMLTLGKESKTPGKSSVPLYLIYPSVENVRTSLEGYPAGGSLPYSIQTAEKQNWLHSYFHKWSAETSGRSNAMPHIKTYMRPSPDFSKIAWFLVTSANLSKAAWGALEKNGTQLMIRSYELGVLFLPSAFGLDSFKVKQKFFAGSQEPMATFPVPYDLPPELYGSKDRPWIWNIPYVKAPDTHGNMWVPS

Tdp1 inhibitory activity (in words)	SMILES
active	CCOC(=O)CNc1ccc2c3c(n(CCCN)c(=O)c2c1)-c1ccccc1C3=O.Cl [Compound 40, Ethyl 2-[(6-(3-Aminopropyl)-5,11-dioxo-6,11-dihydro-5H-indeno[1,2-c]isoquinolin-3-yl)amino]acetate Hydrochloride]
very weak or inactive	COc1ccc2c(c1)-c1c(c3ccc([N+](=O)[O-])cc3c(=O)n1CCCN1CCOCC1)C2=O [Compound 53, 8-Methoxy-6-(3-morpholinopropyl)-3-nitro-5H-indeno[1,2-c]isoquinoline-5,11(6H)-dione]
inactivity; also recorded: inactive	Cn1c2c(c3ccc(NCC(=O)O)cc3c1=O)C(=O)c1ccccc1-2 [Compound 41, 2-[(6-Methyl-5,11-dioxo-6,11-dihydro-5H-indeno[1,2-c]isoquinolin-3-yl)amino]acetic Acid]
very weak or inactive	COc1ccc2c(c1)-c1c(c3ccc([N+](=O)[O-])cc3c(=O)n1CCCBr)C2=O [Compound 49, 6-(3-Bromopropyl)-5,6-dihydro-8-methoxy-3-nitro-5,11-dioxo-11H-indeno[1,2-c]isoquinoline]
very weak or inactive	COc1ccc2c(c1)-c1c(c3ccc([N+](=O)[O-])cc3c(=O)n1CCCN=[N+]=[N-])C2=O [Compound 50, 6-(3-Azidopropyl)-5,6-dihydro-8-methoxy-3-nitro-5,11-dioxo-11H-indeno[1,2-c]isoquinoline]
inactivity; also recorded: inactive	CCOC(=O)CNc1ccc2c3c(n(C)c(=O)c2c1)-c1ccccc1C3=O [Compound 38, Ethyl 2-[(6-Methyl-5,11-dioxo-6,11-dihydro-5H-indeno[1,2-c]isoquinolin-3-yl)amino]acetate]
inactive	Cn1c2c(c3ccc(NC(=O)CC(=O)O)cc3c1=O)C(=O)c1ccccc1-2 [Compound 15, 3-[(6-Methyl-5,11-dioxo-6,11-dihydro-5H-indeno[1,2-c]isoquinolin-3-yl)amino]-3-oxopropanoic Acid]

More lines, now with the values behind:

SMILES	Tdp1 inhibitory activity (in words)
CC(C)(C)OC(=O)NCCCn1c2c(c3ccc(NC(=O)CCCC(=O)O)cc3c1=O)C(=O)c1ccccc1-2 [Compound 30, 5-[(6-(3-((tert-Butoxycarbonyl)amino)propyl)-5,11-dioxo-6,11-dihydro-5H-indeno[1,2-c]isoquinolin-3-yl)amino]-5-oxopentanoic Acid]	inactive
COc1ccc2c(c1)-c1c(c3ccc([N+](=O)[O-])cc3c(=O)n1CCCn1ccnc1)C2=O [Compound 52, 6-(3-(1H-Imidazol-1-yl)propyl)-8-methoxy-3-nitro-5H-indeno[1,2-c]isoquinoline-5,11(6H)-dione]	very weak or inactive
CC(C)(C)OC(=O)NCCCn1c2c(c3ccc(NCC(=O)O)cc3c1=O)C(=O)c1ccccc1-2 [Compound 42, 2-((6-(3-((tert-Butoxycarbonyl)amino)propyl)-5,11-dioxo-6,11-dihydro-5H-indeno[1,2-c]isoquinolin-3-yl)amino)acetic Acid]	inactivity
CC(C)(C)OC(=O)NCCCn1c2c(c3ccc(NC(=O)CCC(=O)O)cc3c1=O)C(=O)c1ccccc1-2 [Compound 29, 4-[(6-(3-((tert-Butoxycarbonyl)amino)propyl)-5,11-dioxo-6,11-dihydro-5H-indeno[1,2-c]isoquinolin-3-yl)amino]-4-oxobutanoic Acid]	weakly active
COC(=O)C(=O)Nc1ccc2c3c(n(C)c(=O)c2c1)-c1ccccc1C3=O [Compound 9, Methyl 2-[(6-Methyl-5,11-dioxo-6,11-dihydro-5H-indeno[1,2-c]isoquinolin-3-yl)amino]-2-oxoacetate]	inactive
CC(C)(C)OC(=O)NCCCn1c2c(c3ccc(NC(=O)CCCCC(=O)O)cc3c1=O)C(=O)c1ccccc1-2 [Compound 31, 6-[(6-(3-((tert-Butoxycarbonyl)amino)propyl)-5,11-dioxo-6,11-dihydro-5H-indeno[1,2-c]isoquinolin-3-yl)amino]-6-oxohexanoic Acid]	weakly active
